Measured values from patent US6413995B1, “Cinnamamide derivatives and drug compositions containing the same” (Tsumura & Co., priority 1999, dated 2002).
Like-named read-outs stand apart in the source and are kept apart here.

How the values were obtained:
[1] = tested on: IL-10; assay: Inhibition of IL-10 production by mouse peritoneal macrophages (ELISA); type: cell-based, mice; conditions: Macrophage, 48 hours, read-out: Inhibitory rate (%) IL-10
Protocol: (§1) C57BL/6CrSlc male mice were intraperitoneally injected with 2.0 ml of 3% Brewer tioglycolate medium. Three days later, macrophages were collected from the abdominal cavity with 5.0 ml Hank's balanced salt solution, and then equally divided into each well of a 48-well plate using RPMI 1640 medium supplemented with 10% FBS (Fetal Bovine Serum), followed by incubation in a CO2 incubator for 1 hour. After the macrophages adhered to the walls of the plate, they were incubated for 48 hours in the presence of a test compound with different concentrations. Following the incubation, the supernatant was collected from each well, assayed for IL-6, IL-10 and L-12 by ELISA to determine inhibitory rates against the production of these interleukins.

[2] = target: T1, Thromboxane A2 Synthase (Rattus norvegicus, UniProt P49430); assay: Inhibitory effect on thromboxane A2 synthase: TXB2 in rat platelet rich plasma; type: cell-based, rats; conditions: 10 μmol/l, rat PRP
T1 construct: centrifuged at 1,300 rpm for 7 minutes to obtain platelet rich plasma (PRP); from tissue; host or cells: platelet rich plasma (washed platelets) from the abdominal aorta blood of Sprague-Dawley rats
T1 sequence (P49430 1-533): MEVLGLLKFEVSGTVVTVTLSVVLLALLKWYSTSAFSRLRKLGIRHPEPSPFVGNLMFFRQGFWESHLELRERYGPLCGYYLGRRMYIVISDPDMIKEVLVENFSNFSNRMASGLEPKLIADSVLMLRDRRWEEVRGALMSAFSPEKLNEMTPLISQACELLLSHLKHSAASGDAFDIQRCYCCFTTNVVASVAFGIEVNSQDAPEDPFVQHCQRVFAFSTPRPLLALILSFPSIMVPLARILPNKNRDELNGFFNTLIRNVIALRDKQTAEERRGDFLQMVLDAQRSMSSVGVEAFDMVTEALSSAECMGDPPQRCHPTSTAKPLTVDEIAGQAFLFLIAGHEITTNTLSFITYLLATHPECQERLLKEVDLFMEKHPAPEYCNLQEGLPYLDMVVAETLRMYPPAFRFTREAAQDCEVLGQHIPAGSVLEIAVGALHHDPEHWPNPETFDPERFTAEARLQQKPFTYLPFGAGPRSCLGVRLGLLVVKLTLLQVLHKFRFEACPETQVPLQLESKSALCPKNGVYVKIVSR
Protocol: Eight week old Sprague-Dawley male rats were used in this example. The rats were anesthetized with pentobarbital sodium. The blood was collected from the abdominal aorta using a heparinized syringe, and centrifuged at 1,300 rpm for 7 minutes to obtain platelet rich plasma (PRP). PRP was suspended in an equivalent volume of a buffer containing 25 mmol/l Tris-HCl, 130 mmol/l sodium chloride and 0.3 mmol/l EDTA (pH 7.4)(buffer A), followed by centrifugation at 4° C., at 1,500 rpm for 5 minutes. This procedure was repeated twice, and PRP was finally suspended in a buffer containing 25 mmol/l Tris-HCl, 130 mmol/l, 0.1% glucose and 0.1% albumin (pH7.4)(buffer B).
5×10^6 cells/mm^3 PRP preparation in buffer B was divided into each well of a 96-well plate in an amount of 150 μl/well. Each test substance was prepared at a final concentration of 10 μmol/l and added to the PRP preparation in an amount of 50 μl/well. Immediately after addition of the test substance, 5 μl of an aggregation-inducing agent, type IV collagen (1 mg/ml) or arachidonic acid (50 mmol/l), was added and incubated for 10 minutes. 20 μl of an EDTA-indomethacin solution was added to the each well to stop the reaction. The supernatant was assayed for thromboxane B2 (TXB2), stable metabolite of thromboxane A2 (TXA2), using a TXB2 measurement kit (Cayman).

[3] = tested on: IL-12; assay: Inhibition of IL-12 production by mouse peritoneal macrophages (ELISA); type: cell-based, mice; conditions: Macrophage, 48 hours, read-out: Inhibitory rate (%) IL-12; for inhibition at 10 µM: 10 μM/L
Protocol: as §1

[4] = tested on: IL-6; assay: Inhibition of IL-6 production by mouse peritoneal macrophages (ELISA); type: cell-based, mice; conditions: Macrophage, 48 hours, read-out: Inhibitory rate (%) IL-6
Protocol: as §1

[5] = tested on: Rats with Minimal Change Nephrosis; assay: Inhibitory effects on urinary proteins in rats with minimal change nephrosis (Puromycin Aminonucleoside); type: in vivo; conditions: S.D. male rats, PA 50 mg/kg i.v., test drug 2 mg/kg/day from day 6 to day 11, assayed at day 11
Protocol: Six week old S.D. male rats were intravenously injected with Puromycin Aminonucleoside (PA; SIGMA)at a dose of 50 mg/kg so as to develop nephrosis. Six days after PA treatment, the rats were administered with a test drug at a dose of 2 mg/kg/day by day 11. Each rat was assayed for an excreted urinary protein level at day 11 to determine an inhibitory rate.

Cl.O=C(O)CCc1ccc(/C=C/C(=O)NCc2cccnc2)cc1
melting point: 212 °C

CCOC(=O)COc1ccc(/C=C/C(=O)NCc2cccnc2)cc1 [Example 1, Ethyl [4-[(E)-2-[N-(3-Pyridylmethyl)carbamoyl]ethenyl]phenoxy]acetate]
inhibition at 1 µg/mL ([1]; 1 μg/ml): 2.1% | inhibition at 5 µg/mL ([1]; 5 μg/ml): 29.1% | inhibition at 10 µg/mL ([1]; 10 μg/ml): 23.7% | inhibition at 10 µM ([2]; arachidonic acid, 10 minutes, read-out: TXB2 induced by arachidonic acid (Inhibitory rate; %)): 67% | inhibition at 10 µM ([2]; type IV collagen, 10 minutes, read-out: TXB2 induced by collagen (Inhibitory rate; %)): 32% | inhibition at 10 µM ([2]; summary of Table 3, read-out: inhibitory activity against TXA2 production mediated by collagen or arachidonate): ≥ 50% | inhibition at 1 µg/mL ([3]; 1 μg/ml): 32.4% | inhibition at 5 µg/mL ([3]; 5 μg/ml): 39.5% | inhibition at 10 µg/mL ([3]; 10 μg/ml): 64.6% | inhibition at 1 µg/mL ([4]; 1 μg/ml): 29.3% | inhibition at 5 µg/mL ([4]; 5 μg/ml): 34.5% | inhibition at 10 µg/mL ([4]; 10 μg/ml): 40.4% | Inhibitory rate (%) of excreted urinary protein level [5]: 41%

C/C(=C\C(=O)NCc1cccnc1)c1ccc(OCC(=O)O)cc1 [Example 86, [4-[(E)-1-methyl-2-[N-(3-pyridylmethyl)carbamoyl]ethenyl]phenoxy]acetic acid]
melting point: 228 to 229 °C | inhibition at 10 µM [3]: 48.4%

O=C(O)CSc1ccc(/C=C/C(=O)NCc2cccnc2)cc1 [Example 89, [[4-[(E)-2-[N-(3-pyridylmethyl)carbamoyl]ethenyl]phenyl]thio]acetic acid]
melting point: 160 to 161 °C | inhibition at 10 µM [3]: 51.1%
